Where two headings read alike, the source gives them in different places.
Legend:
[1] = Plasma pharmacokinetics in rats after oral administration of Yizhi tablets, EPT or EPG (HPLC-ESI/MS); format: in vivo, Sprague-Dawley rats; conditions: for AUC(0-inf) / CL/F / Cmax / Tmax / MRT last / MRT inf / AUC(0-t): male, Sprague-Dawley; for MRT last: read-out: MRT(0–t) (converted); for MRT inf: read-out: MRT(0–∞) (converted)
Description: Male Sprague-Dawley rats (weight: 220 ± 30 g) were purchased from the animal laboratory centre at Tsinghua University (Beijing, China). All animals were maintained in an environmentally controlled room under controlled temperature (22–25°C) and relative humidity (50 ± 5%) on 12 h light/dark cycles (lights on from 08:00 to 20:00). Experiments were conducted in a specific pathogen-free (SPF) grade laboratory, according to the guidelines of the Guiding Principles for the Care and Use of Laboratory Animals approved by the Committee for Animal Experiments at Tsinghua University (Beijing, China). The animals were acclimated for one week before use. Standard diet and water were provided to the rats ad libitum.
Yizhi tablets were prepared by mixing Yizhi tablet powder (9 g) in 10 mL 5% CMC-Na with a magnetic stirring apparatus. The concentration of effective parts of tianma (EPT, total saponins from Gastrodiae) and gouteng (EPG, rhynchophylla alkaloids) was equivalent to that in a Yizhi tablet. The three different suspensions were shacked uniformly before administration.
The rats were randomly assigned to one of three groups (1–3), representing the groups administered with EPT, EPG, and Yizhi, respectively. Each group contained six rats. The rats fasted overnight with free access to water before dose administration. After a single dose was administered by oral gavage, blood samples (0.5 mL) were collected in heparinized tubes via the orbital vein at 0 min, 10 min, 20 min, 30 min, 45 min, 1 h, 2 h, 4 h, 6 h, 8 h, and 12 h. All blood samples were centrifuged at 3000 rpm for 15 min to collect plasma. The plasma samples obtained were stored at −20°C until analysis. Along with the plasma samples, quality control (QC) samples were distributed among calibrators and unknown samples in the analytical run. All of the blank samples used as controls were prepared by the same method as drug-containing samples.
To 200 μL of thawed plasma, 25 μL aqueous ammonia and 800 μL ether were added. The supernatant was separated and dried under nitrogen gas at 37°C after vortexing for 1 min and centrifuging at 10,000 g for 15 min at 4°C. The residues were reconstituted in 50 μL of methanol and centrifuged at 15,000 g for 15 min. A 20 μL aliquot of the supernatant was injected into the HPLC-MS system for analysis of RIN. To the residue, 800 μL methanol was added. The supernatant was separated and evaporated to dryness under nitrogen at room temperature after being vortexed for 3 min and centrifuged at 10,000 g for 15 min. The residue was reconstituted in 50 μL of the initial mobile phase and centrifuged at 15,000 g for 15 min. 20 μL aliquot of the supernatant was injected into the HPLC-MS system for analysis of GAS and HBA.
Yizhi tablets, EPT, and EPG were separately suspended in 0.5% carboxymethylcellulose solution and administered orally to six conscious rats at doses of 9 g/kg for Yizhi tablets, 5.4 g/kg for EPT, and 3.6 g/kg for EPG, respectively. Blood samples were collected from the retroorbital plexus of rats under light anaesthesia with ether. Blood samples were collected in microfuge tubes containing heparin as an anticoagulant at 0 min, 10 min, 20 min, 30 min, 45 min, 1 h, 2 h, 4 h, 6 h, 8 h, and 12 h after treatment. Plasma was harvested by centrifuging blood samples at 3500 ×g for 10 min and stored at −80°C until analysis. The concentrations of GAS, HBA, and RIN in plasma were determined as described above. QC samples were distributed among calibrators and samples in the analytical run to adjust the error.
The pharmacokinetic parameters, such as area under the plasma concentration-time curve (AUC), maximum plasma concentration (C max), corresponding time (T max) and half-life (T 1/2), plasma clearance (CL), mean residence time (MRT), and initial plasma concentration (C 0) for orally administered dose, were performed on each individual set using the software of Kinetica (Version 5.0, Thermo Electron Corp., MA, USA) by the noncompartmental model. […]

[2] = Stability of GAS, HBA and RIN spiked into rat plasma (HPLC-MS); format: physicochemical; conditions: for Stability (RE, %) 20°C/24 h / Stability (RE, %) Freeze-thaw (3 cycles) / Stability (RE, %) −80°C/20 days: rat plasma, n = 3; for stability spiked into rat plasma: room temperature (22–25°C) for 24 h, −80°C for 20 days, three freeze/thaw cycles
Description: The stability experiments on GAS, HBA, and RIN were performed at three concentrations of the QC samples, using three replicates at each concentration (10, 50, and 100 μg/mL for GAS and HBA and 1, 5, and 10 μg/mL for RIN). Short-term stability was determined after exposure of the spiked samples at room temperature for 24 h. The freeze/thaw stability was evaluated after three complete freeze/thaw cycles (−80°C) on consecutive days. Long-term stability was assessed after storage of the standard spiked plasma samples at −80°C for 20 days. Postextraction stability was determined after the extracted samples had been stored in the autosampler pending analysis at the temperature of the autoinjector (4°C) for 24 h. The analytes were considered stable in the biological matrix when 85–115% (RE) of the initial concentration was found.

[3] = in vivo, rat plasma, oral EPG 3.6 g/kg, n = 6
[4] = in vivo, rat plasma, oral Yizhi tablets 9 g/kg, n = 6
[5] = rat, in vivo, po, 9 g/kg, oral Yizhi tablets 9 g/kg, n = 6
[6] = rat, in vivo, po, 9 g/kg, text value matching the Yizhi tablet group (oral 9 g/kg)
[7] = rat plasma, oral EPT 5.4 g/kg, n = 6
[8] = rat plasma, oral Yizhi tablets 9 g/kg, n = 6
[9] = in vivo, rat plasma, oral EPT 5.4 g/kg, n = 6

Row | SMILES | AUC(0-inf) [1, 4] [ng·h/mL] | CL/F [1, 4] [mL/min/kg] | Cmax [1, 4] [ng/mL] | Tmax [1, 4] [h] | MRT last [1, 4] [h] | MRT inf [1, 4] [h] | AUC(0-t) [1, 5] [ng·h/mL] | AUC(0-t) [1, 6] [ng·h/mL] | Stability (RE, %) 20°C/24 h ([2]; 10 μg/mL) [%] | Stability (RE, %) Freeze-thaw (3 cycles) ([2]; 10 μg/mL) [%] | Stability (RE, %) −80°C/20 days ([2]; 10 μg/mL) [%] | stability spiked into rat plasma [2] | Stability (RE, %) 20°C/24 h ([2]; 50 μg/mL) [%] | Stability (RE, %) Freeze-thaw (3 cycles) ([2]; 50 μg/mL) [%] | Stability (RE, %) −80°C/20 days ([2]; 50 μg/mL) [%] | Stability (RE, %) 20°C/24 h ([2]; 100 μg/mL) [%] | Stability (RE, %) Freeze-thaw (3 cycles) ([2]; 100 μg/mL) [%] | Stability (RE, %) −80°C/20 days ([2]; 100 μg/mL) [%] | other results
1 | CC[C@H]1CN2CC[C@]3(C(=O)Nc4ccccc43)[C@@H]2C[C@@H]1/C(=C\OC)C(=O)OC [RIN, rhynchophylline] | 32000 | 2.18 ± 0.46 | 6500 ± 1440 | 4 | 3.72 | 4.59 | 29700 | 29700 | 9.35 | 4.56 | 5.49 | stable |  |  |  |  |  |  | AUC(0-inf) [1, 3]: 43400 ng·h/mL; CL/F [1, 3]: 1.55 ± 0.13 mL/min/kg; Cmax [1, 3]: 6170 ± 380 ng/mL; Tmax [1, 3]: 3.67 h; MRT last [1, 3]: 4.78 h; MRT inf [1, 3]: 5.59 h; AUC(0-t) ([1]; rat, in vivo, po, 3.6 g/kg, oral EPG 3.6 g/kg): 40200 ng·h/mL; AUC(0-t) ([1]; rat, in vivo, po, 3.6 g/kg, oral EPG 3.6 g/kg, n = 6): 40200 ng·h/mL; delay of T max ([1]; rat plasma, Yizhi tablets versus EPG alone): 0.333 h; Stability (RE, %) 20°C/24 h ([2]; 1 μg/mL): 8.63%; Stability (RE, %) Freeze-thaw (3 cycles) ([2]; 1 μg/mL): 7.18%; Stability (RE, %) −80°C/20 days ([2]; 1 μg/mL): 6.88%; Stability (RE, %) 20°C/24 h ([2]; 5 μg/mL): 7.65%; Stability (RE, %) Freeze-thaw (3 cycles) ([2]; 5 μg/mL): 8.08%; Stability (RE, %) −80°C/20 days ([2]; 5 μg/mL): 8.04%
2 | OCc1ccc(O)cc1 [HBA, p-hydroxybenzyl alcohol] |  |  |  |  |  |  |  |  | 4.69 | 2.65 | 4.58 | stable | 2.65 | 4.65 | 5.63 | 3.17 | 7.03 | 7.15 | AUC(0-inf) [1, 7]: 34700 ng·h/mL; AUC(0-t) [1, 7]: 27600 ng·h/mL; Cmax [1, 7]: 9120 ± 610 ng/mL; Tmax [1, 7]: 1 h; MRT last [1, 7]: 2.57 h; MRT inf [1, 7]: 3.98 h; AUC(0-inf) [1, 8]: 52200 ng·h/mL; AUC(0-t) [1, 8]: 37800 ng·h/mL; Cmax [1, 8]: 10400 ± 3020 ng/mL; Tmax [1, 8]: 0.917 h; MRT last [1, 8]: 4.44 h; MRT inf [1, 8]: 9.22 h; bioavailability in Yizhi tablet group compared with EPT alone ([1]; rat plasma, increased AUC, longer MRT (P < 0.01), higher C max): higher bioavailability
3 | OCc1ccc(O[C@@H]2O[C@H](CO)[C@@H](O)[C@H](O)[C@H]2O)cc1 [GAS, Gastrodin] | 249000 | 3.5 ± 0.1 | 141000 ± 19000 | 0.75 | 2.69 | 3.29 | 230000 | 230000 | 9.35 | 5.36 | 4.38 | stable | 3.17 | 4.12 | 6.95 | 3.93 | 8.26 | 8.01 | AUC(0-inf) [1, 9]: 367000 ng·h/mL; CL/F [1, 9]: 2.32 ± 0.25 mL/min/kg; Cmax [1, 9]: 188000 ± 19300 ng/mL; Tmax [1, 9]: 0.361 h; MRT last [1, 9]: 2.03 h; MRT inf [1, 9]: 2.21 h; AUC(0-t) ([1]; rat, in vivo, po, 5.4 g/kg, oral EPT 5.4 g/kg, n = 6): 359000 ng·h/mL; MRT change when coadministered with Yizhi tablet ([1]; rat plasma, Yizhi tablet group versus EPT group): 1.32 fold; time of first of two successive maximum plasma concentrations ([1]; rat plasma, oral Yizhi tablets): 45 min; time of second of two successive maximum plasma concentrations ([1]; rat plasma, oral Yizhi tablets): 120 min
